Source: US10770169B2, “Method of providing a treatment to a subject based on a dynamic pathway map” (THE REGENTS OF THE UNIVERSITY OF CALIFORNIA, priority 2010, dated 2020)
Where two headings read alike, the source gives them in different places.

Columns and labels:
[1] = tested on: panel of 55 breast cancer cell lines; experiment: Cell growth inhibition assay (Cell Titer Glo, 72 h, 9 doses; GI50, TGI, LC50); assay type: cell-based, human; conditions: Homo sapiens, read-out: GI50 (converted)
[2] = tested on: luminal, basal, claudin-low and ERBB2AMP breast cancer cell lines; experiment: Associations of clinically relevant subtypes and response (non-parametric ANOVA or t-test on GI50 ranks); assay type: cell-based, human; conditions: for Subtype specificity: Table 6, most sensitive subtype, FDR p<0.20
From the text: A central premise of this study is that associations between responses and molecular subtypes observed in preclinical cell line analyses will be recapitulated in the clinic in instances where the predictive molecular features in the cell lines are mirrored in human tumors. We established response-subtype associations by using non-parametric ANOVAs to compare […] values across transcriptional and genomics subtypes.
Differences between GI50s of the groups were compared with a non-parametric ANOVA or t-test, as appropriate, on the ranks. We combined the p-values for the three sets of tests and used false discovery rate (FDR) to correct for multiple testing. For the three-sample test, we performed a post-hoc analysis on the compounds with a significant class effect by comparing each group to all others to determine which group was most sensitive. The p-values for the post-hoc test were FDR-corrected together. In all cases, FDR p<0.20 was deemed significant. […] Analyses were performed in R.

CN(C)C/C=C/C(=O)Nc1cc2c(Nc3ccc(F)c(Cl)c3)ncnc2cc1O[C@H]1CCOC1 [BIBW 2992]
GI50 ([1]; BT-20, BT20 cell line, censored GI50 values): 2750 nM | GI50 ([1]; BT-20, cell line BT20): 2750 nM | GI50 ([1]; BT-474, BT474 cell line, censored GI50 values): 5.89 nM | GI50 ([1]; BT-474, cell line BT474): 5.89 nM | GI50 ([1]; BT-483, BT483 cell line, censored GI50 values): 1660 nM | GI50 ([1]; BT-483, cell line BT483): 1660 nM | GI50 ([1]; CAMA-1, CAMA1 cell line, censored GI50 values): 2240 nM | GI50 ([1]; CAMA-1, cell line CAMA1): 2240 nM | GI50 ([1]; HCC38, HCC38 cell line, censored GI50 values): 1820 nM | GI50 ([1]; HCC38, cell line HCC38): 1820 nM | GI50 ([1]; HCC70, HCC70 cell line, censored GI50 values): 468 nM | GI50 ([1]; HCC70, cell line HCC70): 468 nM | GI50 ([1]; HCC1143, HCC1143 cell line, censored GI50 values): 1380 nM | GI50 ([1]; HCC1143, cell line HCC1143): 1380 nM | GI50 ([1]; HCC1419, HCC1419 cell line, censored GI50 values): 2.95 nM | GI50 ([1]; HCC1419, cell line HCC1419): 2.95 nM | GI50 ([1]; HCC1428, HCC1428 cell line, censored GI50 values): 1740 nM | GI50 ([1]; HCC1428, cell line HCC1428): 1740 nM | GI50 ([1]; HCC1500, HCC1500 cell line, censored GI50 values): 339 nM | GI50 ([1]; HCC1500, cell line HCC1500): 339 nM | GI50 ([1]; HCC1806, HCC1806 cell line, censored GI50 values): 537 nM | GI50 ([1]; HCC1806, cell line HCC1806): 537 nM | GI50 ([1]; HCC1937, HCC1937 cell line, censored GI50 values): 2090 nM | GI50 ([1]; HCC1937, cell line HCC1937): 2090 nM | GI50 ([1]; HCC1954, HCC1954 cell line, censored GI50 values): 123 nM | GI50 ([1]; HCC1954, cell line HCC1954): 123 nM | GI50 ([1]; HCC2185 cell line, censored GI50 values): 1380 nM | GI50 ([1]; MDA-MB-134-VI, MDAMB134VI cell line, censored GI50 values): 3630 nM | GI50 ([1]; MDA-MB-175-VII, MDAMB175VII cell line, censored GI50 values): 4.47 nM | GI50 ([1]; MDA-MB-436, MDAMB436 cell line, censored GI50 values): 3720 nM | GI50 ([1]; MDA-MB-436, cell line MDAMB436): 3720 nM | GI50 ([1]; MDA-MB-453, MDAMB453 cell line, censored GI50 values): 91.2 nM | GI50 ([1]; MDA-MB-453, cell line MDAMB453): 91.2 nM | GI50 ([1]; MDA-MB-468, MDAMB468 cell line, censored GI50 values): 631 nM | GI50 ([1]; MDA-MB-468, cell line MDAMB468): 631 nM | GI50 ([1]; SK-BR-3, SKBR3 cell line, censored GI50 values): 13.2 nM | GI50 ([1]; SK-BR-3, cell line SKBR3): 13.2 nM | GI50 ([1]; SUM52PE, SUM52PE cell line, censored GI50 values): 3390 nM | GI50 ([1]; SUM52PE, cell line SUM52PE): 3390 nM | GI50 ([1]; SUM149PT, SUM149PT cell line, censored GI50 values): 74.1 nM | GI50 ([1]; SUM149PT, cell line SUM149PT): 74.1 nM | GI50 ([1]; SUM185PE, SUM185PE cell line, censored GI50 values): 5620 nM | GI50 ([1]; SUM185PE, cell line SUM185PE): 5620 nM | GI50 ([1]; SUM225CWN, SUM225CWN cell line, censored GI50 values): 9.33 nM | GI50 ([1]; SUM225CWN, cell line SUM225CWN): 9.33 nM | GI50 ([1]; SUM1315MO2, SUM1315MO2 cell line, censored GI50 values): 162 nM | GI50 ([1]; SUM-159-PT, SUM159PT cell line, censored GI50 values): 2570 nM | GI50 ([1]; SUM-159-PT, cell line SUM159PT): 2570 nM | GI50 ([1]; UACC-812, UACC812 cell line, censored GI50 values): 2.82 nM | GI50 ([1]; UACC-812, cell line UACC812): 2.82 nM | GI50 ([1]; ZR-75-1, ZR751 cell line, censored GI50 values): 2340 nM | GI50 ([1]; ZR-75-1, cell line ZR751): 2340 nM | GI50 ([1]; ZR-75B, ZR75B cell line, censored GI50 values): 3020 nM | GI50 ([1]; ZR-75B, cell line ZR75B): 3020 nM | GI50 ([1]; cell line HCC2185): 1380 nM | GI50 ([1]; cell line MDAMB134V): 3630 nM | GI50 ([1]; cell line MDAMB175V): 4.47 nM | GI50 ([1]; cell line SUM1315MO): 162 nM | association of response with ERBB2 amplification [2]: positively associated with ERBB2 amplification | Subtype specificity [2]: ERBB2AMP

COc1cc2ncnc(Nc3ccc(F)c(Cl)c3)c2cc1OCCCN1CCOCC1 [Gefitinib]
GI50 ([1]; AU565, cell line AU565): 1070 nM | GI50 ([1]; BT-474, cell line BT474): 724 nM | GI50 ([1]; BT-483, cell line BT483): 6170 nM | GI50 ([1]; BT-549, cell line BT549): 15100 nM | GI50 ([1]; CAMA-1, cell line CAMA1): 26900 nM | GI50 ([1]; HCC38, cell line HCC38): 28200 nM | GI50 ([1]; HCC70, cell line HCC70): 17400 nM | GI50 ([1]; HCC1143, cell line HCC1143): 11700 nM | GI50 ([1]; HCC1187, cell line HCC1187): 30200 nM | GI50 ([1]; HCC1395, cell line HCC1395): 7080 nM | GI50 ([1]; HCC1419, cell line HCC1419): 2750 nM | GI50 ([1]; HCC1428, cell line HCC1428): 10700 nM | GI50 ([1]; HCC1500, cell line HCC1500): 8130 nM | GI50 ([1]; HCC1806, cell line HCC1806): 4680 nM | GI50 ([1]; HCC1937, cell line HCC1937): 8320 nM | GI50 ([1]; HCC1954, cell line HCC1954): 2040 nM | GI50 ([1]; MCF7, cell line MCF7): 26900 nM | GI50 ([1]; MDA-MB-157, cell line MDAMB157): 15100 nM | GI50 ([1]; MDA-MB-231, cell line MDAMB231): 33100 nM | GI50 ([1]; MDA-MB-361, cell line MDAMB361): 6460 nM | GI50 ([1]; MDA-MB-415, cell line MDAMB415): 7410 nM | GI50 ([1]; MDA-MB-436, cell line MDAMB436): 33100 nM | GI50 ([1]; MDA-MB-453, cell line MDAMB453): 7410 nM | GI50 ([1]; MDA-MB-468, cell line MDAMB468): 25100 nM | GI50 ([1]; SK-BR-3, cell line SKBR3): 2820 nM | GI50 ([1]; SUM52PE, cell line SUM52PE): 7940 nM | GI50 ([1]; SUM149PT, cell line SUM149PT): 2880 nM | GI50 ([1]; SUM185PE, cell line SUM185PE): 20900 nM | GI50 ([1]; SUM-159-PT, cell line SUM159PT): 8510 nM | GI50 ([1]; T47D, cell line T47D): 15800 nM | GI50 ([1]; UACC-893, cell line UACC893): 1150 nM | GI50 ([1]; ZR-75-1, cell line ZR751): 32400 nM | GI50 ([1]; ZR-75B, cell line ZR75B): 21400 nM | GI50 ([1]; cell line 600MPE): 7240 nM | GI50 ([1]; cell line HCC2185): 9330 nM | GI50 ([1]; cell line HCC3153): 33100 nM | GI50 ([1]; cell line LY2): 27500 nM | GI50 ([1]; cell line MDAMB134V): 30200 nM | GI50 ([1]; cell line MDAMB175V): 209 nM | GI50 ([1]; cell line SUM1315MO): 2950 nM | association of response with ERBB2 amplification [2]: positively associated with ERBB2 amplification | Subtype specificity [2]: ERBB2AMP
